Square brackets hold non-standard residues; d marks the D form. Ends that are not written are not given here. Orn = NCCC[C@H](N)C(=O)O; DOA = not defined here; Doa = not defined here
Tests used:
MSCs = assay: Adhesion of MSCs to BSA-coupled peptide microarrays (MSA technology); type: cell-based, human; conditions: peptide coupled to bovine serum albumin, incubation two hours, FIG. 2
Protocol: (§1) The adhesion of cells to peptides was also measured using the MSA™ technology (see Kuschel et al., 2006) as above in example 1. Instead of the extracellular matrix proteins, however, peptides coupled to bovine serum albumin were printed in the form of microarrays (8×8 microspots) onto the nitrocellulose layer, and then the remaining surface was sealed. For incubation with cells, small silicone chambers were placed on the coated slides, and incubated with MSCs or fibroblasts. After incubation for two hours, the non-adherent cells were washed away.
(§2) Adherent cells were made visible on the white nitrocellulose film by staining with Coomassie Blue and were evaluated in a motorized photomicroscope: the number of blue cells or the color intensity per spot is measured and transferred to tables for evaluation.
(§3) Evaluation of these arrays using the semi-automatic photomicroscope gave the relative binding strength on PLL (standardized to 100%, positive control) and BSA (standardized to 0%, negative control) for the peptides tested in each case.

fibroblasts = assay: Adhesion of fibroblasts to BSA-coupled peptide microarrays (MSA technology); type: cell-based, human; conditions: peptide coupled to bovine serum albumin, incubation two hours, FIG. 3
Protocol: as §1, §2, §3

[1] = system: human mesenchymal stem cells (MSC); assay: Adherence of MSCs on immobilized matrix proteins (Multiple Substrate Array chip); type: cell-based; conditions: immobilized protein on MSA chip, 20 000 cells/test chamber, FIG. 1
Protocol: The adherence of human mesenchymal stem cells (MSC, samples 5 and 6 in FIG. 1) and human fibroblasts (samples 1 to 4 in FIG. 1) on matrix proteins was investigated in a comparative test. The investigation was carried out using a chip (Multiple Substrate Array (MSA®)), on which the proteins were immobilized. The procedure used as such was as described in Kuschel et al., “Cell adhesion profiling using extracellular matrix protein microarrays”, Biotechniques 40: 523-531 (2006).
MSCs were enriched from bone marrow by density gradient centrifugation, cultivated as an adherent population in MSC-expansion medium, and harvested. The differentiation potential was tested on an aliquot and adipogenic, chondrogenic and osteogenic differentiation was confirmed. Therefore the cells fulfill the physiological requirements for MSCs (M. Dominici et al. 2006, Cytotherapy, 8: 315 ff). […]
Fibroblasts were isolated from the synovial membrane and expanded as described (Aicher et al. 1994 J. Immunol. 152: 5940 ff). The cells were harvested, washed, counted and in each case 20 000/test chamber were investigated using MSA™ chip technology for adherence to proteins. […] Cells adhering to the proteins were fixed chemically and their nuclei were marked with dye, for quantitation of the number of adherent cells per microspot of protein. […]

| Substance | adhesion of MSCs to the peptide (MSCs) | adhesion of fibroblasts to the peptide (fibroblasts) | binding of the MSCs to the protein compared with binding of fibroblasts [1] |
| --- | --- | --- | --- |
| DRVPHSRNSIT-OH (listed as Homo sapiens) [No. 20] | make the adhesion of MSCs possible | not that of fibroblasts | – |
| EILDV-OH (listed as Homo sapiens) [No. 22] | make the adhesion of MSCs possible | not that of fibroblasts | – |
| YIIR-OH (listed as Homo sapiens) [No. 34] | make the adhesion of MSCs possible | not that of fibroblasts | – |
| KRSR-DOA-A-OH (KRSR[DOA]A-OH; reading uncertain; also: printed as KRSR-DOA-A-OH; listed as Homo sapiens) [No. 37b] | make the adhesion of MSCs possible | not that of fibroblasts | – |
| KREDVY-OH (listed as Homo sapiens) [No. 21] | make the adhesion of MSCs possible | not that of fibroblasts | – |
| DVISLYNFKHIY-OH (listed as Homo sapiens) [No. 16] | make the adhesion of MSCs possible | not that of fibroblasts | – |
| WTPPRAQITGYRLTVGLTRR-OH (listed as Homo sapiens) [No. 30] | make the adhesion of MSCs possible | not that of fibroblasts | – |
| KREDVY-COOH (KREDVY-OH; listed as Homo sapiens) [No. 21-COOH] | make the adhesion of MSCs possible | not that of fibroblasts | – |
| GF-Orn-GER-OH (GF[Orn]GER-OH; N-terminus assumed; SMILES N=C(N)NCCC[C@H](NC(=O)[C@H](CCC(=O)O)NC(=O)CNC(=O)[C@H](CCCN)NC(=O)[C@H](Cc1ccccc1)NC(=O)CN)C(=O)O) [No. 1] | make the adhesion of MSCs possible | not that of fibroblasts | – |
| EILDV-COOH (EILDV-OH; listed as Homo sapiens) [No. 22-COOH] | make the adhesion of MSCs possible | not that of fibroblasts | – |
| GRGDSO-OH (GRGDS[Orn]-OH; N-terminus assumed; SMILES N=C(N)NCCC[C@H](NC(=O)CN)C(=O)NCC(=O)N[C@@H](CC(=O)O)C(=O)N[C@@H](CO)C(=O)N[C@@H](CCCN)C(=O)O; listed as Homo sapiens) [No. 11] | make the adhesion of MSCs possible | not that of fibroblasts | – |
| LAIKNDNLVYVY-OH (listed as Homo sapiens) [No. 15] | make the adhesion of MSCs possible | not that of fibroblasts | – |
| YIIR-DOA-A-OH (YIIR[DOA]A-OH; reading uncertain; also: printed as YIIR-DOA-A-OH; listed as Homo sapiens) [No. 34-COOH] | make the adhesion of MSCs possible | not that of fibroblasts | – |
| GEFYFDLRLKGDK-OH (listed as Homo sapiens) [No. 5] | make the adhesion of MSCs possible | not that of fibroblasts | – |
| LRE-OH (Leu-Arg-Glu-OH; listed as Homo sapiens) [No. 9] | make the adhesion of MSCs possible | not that of fibroblasts | – |
| LRE-Doa-A-OH (LRE[Doa]A-OH; reading uncertain; also: printed as LRE-Doa-A-OH; listed as Homo sapiens) [No. 9-COOH] | make the adhesion of MSCs possible | not that of fibroblasts | – |
| tenascin-C: oligomeric glycoprotein of the extracellular matrix, immobilized on the chip | – | – | firmer |
